# Data as given in ChEMBL document CHEMBL5303573, “Mapping human microbiome drug metabolism by gut bacteria and their genes” (Nature, 2019).
# Legend:
# [1] = The drug is tested on Salmonella typhimurium strain: LT2 for biotransformation. The drug concentrations were measured before and after a 12-h incubation by liquid-chromatography-coupled mass spectrometry (LC–MS); conditions: salmonella enterica subsp. enterica, 2 µM
# [2] = biological target: T1, Nitroreductase domain-containing protein (Phocaeicola dorei, UniProt B6VU18); test: (§1) The drug is tested on Bacteroides dorei strain: DSM17855 for biotransformation. The drug concentrations were measured before and after a 12-h incubation by liquid-chromatography-coupled mass spectrometry (LC–MS); assay type: ADME; set-up: dose 2 uM; conditions: 2 µM
# T1 sequence (B6VU18 whole entry): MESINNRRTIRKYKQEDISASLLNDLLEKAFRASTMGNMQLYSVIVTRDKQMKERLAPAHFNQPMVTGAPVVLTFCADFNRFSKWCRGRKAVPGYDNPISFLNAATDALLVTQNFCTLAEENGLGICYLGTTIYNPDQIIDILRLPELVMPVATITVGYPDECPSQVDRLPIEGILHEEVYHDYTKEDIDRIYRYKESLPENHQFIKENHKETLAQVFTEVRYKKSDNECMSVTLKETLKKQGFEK
# Esterase = biological target: T2, Esterase (Phocaeicola dorei, UniProt B6W2J6); test: as §1; assay type: ADME; set-up: dose 2 uM; conditions: 2 µM
# T2 sequence (B6W2J6 whole entry): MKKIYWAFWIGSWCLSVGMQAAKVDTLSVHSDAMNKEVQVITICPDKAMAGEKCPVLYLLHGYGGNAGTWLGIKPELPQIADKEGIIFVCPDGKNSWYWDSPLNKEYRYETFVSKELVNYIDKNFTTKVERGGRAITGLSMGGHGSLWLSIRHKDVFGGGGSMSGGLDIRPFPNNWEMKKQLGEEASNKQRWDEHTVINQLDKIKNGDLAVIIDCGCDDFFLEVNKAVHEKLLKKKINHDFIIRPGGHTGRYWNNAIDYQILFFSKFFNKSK
# [3] = biological target: T3, Nitroreductase domain-containing protein (Phocaeicola dorei, UniProt B6W3P3); test: as §1; assay type: ADME; set-up: dose 2 uM; conditions: 2 µM
# T3 sequence (B6W3P3 whole entry): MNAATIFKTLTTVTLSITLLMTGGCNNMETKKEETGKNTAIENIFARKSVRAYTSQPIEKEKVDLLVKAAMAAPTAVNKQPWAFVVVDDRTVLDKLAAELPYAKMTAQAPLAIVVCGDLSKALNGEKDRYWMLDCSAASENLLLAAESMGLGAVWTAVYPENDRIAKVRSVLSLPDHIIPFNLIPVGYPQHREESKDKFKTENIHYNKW
# [4] = The drug is tested on Clostridium spiroforme strain: DSM1552 for biotransformation. The drug concentrations were measured before and after a 12-h incubation by liquid-chromatography-coupled mass spectrometry (LC–MS); conditions: thomasclavelia spiroformis, 2 µM
# [5] = The drug is tested on Clostridium hathewayi strain: DSM13479 for biotransformation. The drug concentrations were measured before and after a 12-h incubation by liquid-chromatography-coupled mass spectrometry (LC–MS); conditions: hungatella hathewayi, 2 µM
# [6] = clostridioides difficile, 12 h, 2 µM
# Description: The drug is tested on Clostridium difficile strain: 120 for biotransformation. The drug concentrations were measured before and after a 12-h incubation by liquid-chromatography-coupled mass spectrometry (LC–MS)
# [7] = The drug is tested on Bacteroides fragilis strain: T(B)9 for biotransformation. The drug concentrations were measured before and after a 12-h incubation by liquid-chromatography-coupled mass spectrometry (LC–MS); conditions: 2 µM
# [8] = The drug is tested on Proteus penneri strain: ATCC35198 for biotransformation. The drug concentrations were measured before and after a 12-h incubation by liquid-chromatography-coupled mass spectrometry (LC–MS); conditions: 2 µM
# [9] = The drug is tested on Eubacterium biforme strain: DSM3989 for biotransformation. The drug concentrations were measured before and after a 12-h incubation by liquid-chromatography-coupled mass spectrometry (LC–MS); conditions: holdemanella biformis, 2 µM
# [10] = The drug is tested on Providencia alcalifaciens strain: DSM30120 for biotransformation. The drug concentrations were measured before and after a 12-h incubation by liquid-chromatography-coupled mass spectrometry (LC–MS); conditions: 2 µM
# GDSL-like protein = biological target: T4, GDSL-like protein (Collinsella aerofaciens, UniProt A4E8S4); test: The drug is tested on Collinsella aerofaciens strain: ATCC25986 for biotransformation. The drug concentrations were measured before and after a 12-h incubation by liquid-chromatography-coupled mass spectrometry (LC–MS); assay type: ADME; set-up: dose 2 uM; conditions: 2 µM
# T4 sequence (A4E8S4 whole entry): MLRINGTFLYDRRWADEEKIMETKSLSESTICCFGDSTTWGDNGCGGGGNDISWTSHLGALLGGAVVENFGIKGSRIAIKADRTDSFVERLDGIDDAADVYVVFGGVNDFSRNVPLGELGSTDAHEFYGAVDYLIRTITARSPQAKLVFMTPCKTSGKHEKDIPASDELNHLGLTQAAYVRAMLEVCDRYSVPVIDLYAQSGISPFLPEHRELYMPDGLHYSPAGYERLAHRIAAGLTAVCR
# [11] = biological target: T5, SGNH hydrolase-type esterase domain-containing protein (Phocaeicola dorei, UniProt B6W1J1); test: as §1; assay type: ADME; set-up: dose 2 uM; conditions: 2 µM
# T5 sequence (B6W1J1 whole entry): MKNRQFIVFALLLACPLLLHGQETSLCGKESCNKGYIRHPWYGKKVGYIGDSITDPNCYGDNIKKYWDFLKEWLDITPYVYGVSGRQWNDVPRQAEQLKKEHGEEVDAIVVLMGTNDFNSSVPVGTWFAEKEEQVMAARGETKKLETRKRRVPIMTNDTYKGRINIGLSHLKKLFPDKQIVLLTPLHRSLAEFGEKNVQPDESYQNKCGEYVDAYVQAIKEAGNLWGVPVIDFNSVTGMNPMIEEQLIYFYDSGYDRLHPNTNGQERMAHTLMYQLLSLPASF
# [12] = biological target: T6, SGNH hydrolase-type esterase domain-containing protein (Phocaeicola dorei, UniProt B6VTE7); test: as §1; assay type: ADME; set-up: dose 2 uM; conditions: 2 µM
# T6 sequence (B6VTE7 whole entry): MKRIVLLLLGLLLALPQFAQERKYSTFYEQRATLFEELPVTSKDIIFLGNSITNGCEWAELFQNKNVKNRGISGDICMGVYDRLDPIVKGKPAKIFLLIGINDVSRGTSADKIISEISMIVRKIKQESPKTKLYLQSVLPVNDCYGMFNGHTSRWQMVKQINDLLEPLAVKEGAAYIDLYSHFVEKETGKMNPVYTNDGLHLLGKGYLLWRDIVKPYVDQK
# Lipase = biological target: T7, Lipase (Bacteroides thetaiotaomicron, UniProt Q8A3J3); test: The drug is tested on Bacteroides thetaiotaomicron strain: VPI-5482 for biotransformation. The drug concentrations were measured before and after a 12-h incubation by liquid-chromatography-coupled mass spectrometry (LC–MS); assay type: ADME; set-up: dose 2 uM; conditions: 2 µM
# T7 sequence (Q8A3J3 whole entry): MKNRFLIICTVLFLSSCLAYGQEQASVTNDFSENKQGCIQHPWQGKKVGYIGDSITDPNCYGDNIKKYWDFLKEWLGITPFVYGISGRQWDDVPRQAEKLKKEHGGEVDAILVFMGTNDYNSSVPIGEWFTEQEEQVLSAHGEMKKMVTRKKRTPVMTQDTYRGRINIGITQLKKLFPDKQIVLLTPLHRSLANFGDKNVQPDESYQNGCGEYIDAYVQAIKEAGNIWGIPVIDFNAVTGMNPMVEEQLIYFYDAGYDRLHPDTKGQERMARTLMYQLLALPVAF
Compound,Bacterial Biotransformation [1],Bacterial Biotransformation [4],Bacterial Biotransformation [5],Bacterial Biotransformation [6],Bacterial Biotransformation [7],Bacterial Biotransformation [8],Bacterial Biotransformation [9],Bacterial Biotransformation [10],further results
C=CCc1ccccc1OCC(O)CNC(C)C (stereo unspecified) [ALPRENOLOL],Compound NOT metabolized,–,–,–,–,–,–,–,–
CC(=O)OCC(=O)[C@@]12N=C(C)O[C@@H]1C[C@H]1[C@@H]3CCC4=CC(=O)C=C[C@]4(C)[C@H]3[C@@H](O)C[C@@]12C [DEFLAZACORT],–,–,–,–,–,–,–,–,Bacterial Biotransformation [2]: Compound NOT metabolized; Bacterial Biotransformation (Esterase): Compound NOT metabolized; Bacterial Biotransformation [3]: Compound NOT metabolized
CC(NC(C)(C)C)C(=O)c1cccc(Cl)c1 (stereo unspecified) [BUPROPION],–,Compound NOT metabolized,Compound NOT metabolized,–,–,–,–,–,–
c1ccc([C@H]2CN3CCSC3=N2)cc1 [LEVAMISOLE],–,Compound NOT metabolized,Compound NOT metabolized,Compound metabolized,Compound metabolized,Compound metabolized,Compound NOT metabolized,–,–
O=C(O)COCCN1CCN(C(c2ccccc2)c2ccc(Cl)cc2)CC1 (stereo unspecified) [CETIRIZINE],Compound metabolized,–,Compound NOT metabolized,–,Compound metabolized,Compound NOT metabolized,Compound metabolized,Compound NOT metabolized,–
COc1ccccc1OCCNCC(O)COc1cccc2[nH]c3ccccc3c12 (stereo unspecified) [CARVEDILOL],–,Compound metabolized,Compound metabolized,Compound NOT metabolized,–,–,–,–,–
CCOC(=O)C1=C(C)NC(C)=C(C(=O)OC)C1c1cccc([N+](=O)[O-])c1 (stereo unspecified) [NITRENDIPINE],–,–,–,–,–,–,–,–,Bacterial Biotransformation (GDSL-like protein): Compound NOT metabolized; Bacterial Biotransformation [2]: Compound metabolized; Bacterial Biotransformation [11]: Compound NOT metabolized; Bacterial Biotransformation [12]: Compound NOT metabolized; Bacterial Biotransformation (Esterase): Compound NOT metabolized; Bacterial Biotransformation [3]: Compound metabolized
CCCC(=O)Nc1ccc(OCC(O)CNC(C)C)c(C(C)=O)c1 (stereo unspecified) [ACEBUTOLOL],Compound NOT metabolized,Compound NOT metabolized,Compound NOT metabolized,Compound NOT metabolized,–,–,–,–,–
CN(C)CCC=C1c2ccccc2C=Cc2ccccc21 [CYCLOBENZAPRINE],–,Compound NOT metabolized,Compound NOT metabolized,–,Compound NOT metabolized,Compound NOT metabolized,Compound NOT metabolized,Compound NOT metabolized,–
CN1CCN(C2=Nc3cc(Cl)ccc3Nc3ccccc32)CC1 [CLOZAPINE],Compound NOT metabolized,Compound NOT metabolized,Compound NOT metabolized,–,–,Compound NOT metabolized,Compound NOT metabolized,–,–
COc1ccnc(C[S+]([O-])c2nc3ccc(OC(F)F)cc3[nH]2)c1OC (stereo unspecified) [PANTOPRAZOLE],–,–,–,–,–,–,–,–,Bacterial Biotransformation (Lipase): Compound NOT metabolized; Bacterial Biotransformation (GDSL-like protein): Compound NOT metabolized; Bacterial Biotransformation [2]: Compound NOT metabolized; Bacterial Biotransformation [11]: Compound metabolized; Bacterial Biotransformation [12]: Compound metabolized; Bacterial Biotransformation (Esterase): Compound metabolized; Bacterial Biotransformation [3]: Compound NOT metabolized
CC(C)NCC(O)COc1ccc(CC(N)=O)cc1 (stereo unspecified) [ATENOLOL],Compound NOT metabolized,Compound NOT metabolized,–,Compound NOT metabolized,–,Compound NOT metabolized,–,Compound NOT metabolized,–
CCOc1cc(CC(=O)N[C@@H](CC(C)C)c2ccccc2N2CCCCC2)ccc1C(=O)O [REPAGLINIDE],–,Compound NOT metabolized,Compound NOT metabolized,Compound NOT metabolized,–,–,–,–,–
O=C(O)c1cc(/N=N/c2ccc(S(=O)(=O)Nc3ccccn3)cc2)ccc1O [SULFASALAZINE],–,–,–,–,–,–,–,–,Bacterial Biotransformation (Lipase): Compound NOT metabolized; Bacterial Biotransformation [2]: Compound NOT metabolized; Bacterial Biotransformation [11]: Compound NOT metabolized; Bacterial Biotransformation [12]: Compound NOT metabolized; Bacterial Biotransformation (Esterase): Compound NOT metabolized; Bacterial Biotransformation [3]: Compound NOT metabolized
O=P1(N(CCCl)CCCl)NCCCO1 (stereo unspecified) [CYCLOPHOSPHAMIDE ANHYDROUS],Compound NOT metabolized,Compound NOT metabolized,–,–,Compound NOT metabolized,Compound NOT metabolized,Compound metabolized,Compound NOT metabolized,–
Clc1cccc(Cl)c1N=C1NCCN1 [CLONIDINE],Compound NOT metabolized,Compound NOT metabolized,Compound NOT metabolized,Compound NOT metabolized,Compound metabolized,Compound NOT metabolized,Compound NOT metabolized,Compound NOT metabolized,–
CN/C(=N/CCSCc1nc[nH]c1C)NC#N [CIMETIDINE],Compound NOT metabolized,Compound NOT metabolized,Compound NOT metabolized,Compound NOT metabolized,Compound metabolized,Compound NOT metabolized,–,Compound NOT metabolized,–
CC(C)NCC(O)COc1ccc(CCOCC2CC2)cc1 (stereo unspecified) [BETAXOLOL],–,Compound NOT metabolized,Compound NOT metabolized,Compound NOT metabolized,Compound NOT metabolized,Compound NOT metabolized,–,Compound NOT metabolized,–
COC(=O)[C@H](c1ccccc1Cl)N1CCc2sccc2C1.O=S(=O)(O)O [CLOPIDOGREL BISULFATE],Compound NOT metabolized,Compound NOT metabolized,–,–,Compound metabolized,Compound NOT metabolized,Compound NOT metabolized,Compound NOT metabolized,–
